inhibition, EC50 and selectivity ratio data for 15 compounds are collected here from ChEMBL document CHEMBL5252642, “Design and synthesis of naturally-inspired SARS-CoV-2 inhibitors” (RSC Med Chem, 2023).

Activity calls are given as the source filed them. The calls are words filed in the database; no cut-off is given here.

The first data set has as its system Severe acute respiratory syndrome coronavirus 2. Kind of data set: Inhibition of SARS-CoV2 main protease C145A mutant by measuring luciferase signal at 0.02 to 125 uM by reverse-nanoluciferase reporter assay. The note with it: dose 0.02-125 µM. For orientation: A reporter such as luciferase makes a cellular process visible.
As for `CC(C)C[C@H](NC(=O)OCc1ccccc1)C(=O)N[C@@H](C[C@@H]1CCNC1=O)C(O)S(=O)(=O)O` (stereo partly drawn), the inhibition entry was “inactive”.
With `COc1ccc(CCN2C[C@H]3O[C@]4(C2)CN(S(=O)(=O)c2ccc(C)cc2)[C@]2(C(C)C)C=C[C@H](O)[C@H]3[C@H]42)cc1`, the inhibition result was “inactive”.

For a further data set, the system named is SARS-CoV-2. Kind of data set: Antiviral activity against SARS-CoV-2 Omicron BA1 variant infected human A549-ACE2 cells assessed as inhibition of viral replication. Format: functional, organism-based. Particulars: Severe acute respiratory syndrome coronavirus 2, Omicron BA1, A549-ACE2.
As a reminder, the EC50 is the concentration needed to bring the measured effect to its halfway point. Regarding `COc1ccc(CCN2C[C@H]3O[C@]4(C2)CN(S(=O)(=O)c2ccc(C)cc2)[C@]2(C(C)C)C=C[C@H](O)[C@H]3[C@H]42)cc1`, the EC50 is 3.5 µM.
Same read-out and setting: for `COc1cc(CN2C[C@H]3O[C@]4(C2)CN(S(=O)(=O)c2ccc(C)cc2)[C@]2(C(C)C)CC[C@H](OCCCN(C)C)[C@H]3[C@H]42)cc(OC)c1` the value was 4.4 µM.

Tested on in another data set: not listed separately
The data set can be described thus: Selectivity index, ratio of CC50 for human A549-ACE2 cells to EC50 for antiviral activity against SARS-CoV-2 Omicron BA1 variant infected human A549-ACE2 cells. The class given is toxicity. The note with it: read-out: Ratio CC50/EC50.
As for `COc1ccc(CCN2C[C@H]3O[C@]4(C2)CN(S(=O)(=O)c2ccc(C)cc2)[C@]2(C(C)C)C=CC(=O)[C@H]3[C@H]42)cc1`, the selectivity ratio is 0.5.
The same measure, in the same setting: the result for `Cc1ccc(S(=O)(=O)N2C[C@@]34CN(C(=O)c5cccs5)C[C@@H](O3)[C@@H]3[C@H]4[C@@]2(C(C)C)CC[C@@H]3O)cc1` reads greater than 3; that for `Cc1ccc(S(=O)(=O)N2C[C@@]34CN(Cc5nc6ccccc6s5)C[C@@H](O3)[C@H]3C(=O)CC[C@]2(C(C)C)[C@H]34)cc1`, 6.9; that for `Cc1ccc(S(=O)(=O)N2C[C@@]34CN(Cc5ccccc5)C[C@@H](O3)[C@@H]3[C@H]4[C@@]2(C(C)C)C=C[C@@H]3O)cc1`, greater than 3.
The same measure, in the same setting: for `Cc1ccc(S(=O)(=O)N2C[C@@]34CN(Cc5nc6ccccc6s5)C[C@@H](O3)[C@@H]3[C@H]4[C@@]2(C(C)C)CC[C@@H]3O)cc1` the value was 1.6; for `Cc1ccc(S(=O)(=O)N2C[C@@]34CN(Cc5ccccc5)C[C@@H](O3)[C@H]3C(=O)CC[C@]2(C(C)C)[C@H]34)cc1`, 0.7.
The same measure, in the same setting: the result for `Cc1ccc(S(=O)(=O)N2C[C@@]34CN(Cc5ccccc5)C[C@@H](O3)[C@H]3C(=O)C=C[C@]2(C(C)C)[C@H]34)cc1` reads 0.9; that for `COc1ccc(CCN2C[C@H]3O[C@]4(C2)CN(S(=O)(=O)c2ccc(C)cc2)[C@]2(C(C)C)C=C[C@H](O)[C@H]3[C@H]42)cc1`, 3.3.
`COc1cc(CN2C[C@H]3O[C@]4(C2)CN(S(=O)(=O)c2ccc(C)cc2)[C@]2(C(C)C)CC[C@H](OCCCN(C)C)[C@H]3[C@H]42)cc(OC)c1`: the selectivity ratio is 5.7.
Still for that read-out and setting: for `COc1cc(CN2C[C@H]3O[C@]4(C2)CN(S(=O)(=O)c2ccc(C)cc2)[C@]2(C(C)C)CC[C@H](O)[C@H]3[C@H]42)cc(OC)c1` the value was 2.3.
As for `Cc1ccc(S(=O)(=O)N2C[C@@]34CN(C)C[C@@H](O3)[C@H]3[C@@H](Oc5ncccn5)CC[C@]2(C(C)C)[C@H]34)cc1`, the selectivity ratio was found to be 0.8.
The same measure, in the same setting: the result for `Cc1ccc(S(=O)(=O)N2C[C@@]34CN(CCc5c[nH]c6ccccc56)C[C@@H](O3)[C@@H]3[C@H]4[C@@]2(C(C)C)CC[C@@H]3O)cc1` reads 1.6.
Same read-out and setting: for `Cc1ccc(S(=O)(=O)N2C[C@@]34CN(Cc5ccccc5)C[C@@H](O3)[C@H]3[C@@H](Oc5ncccn5)CC[C@]2(C(C)C)[C@H]34)cc1` the value was 1; for `Cc1ccc(S(=O)(=O)N2C[C@@]34CN(C(=O)c5ccc(F)cc5N)C[C@@H](O3)[C@@H]3[C@H]4[C@@]2(C(C)C)CC[C@@H]3O)cc1`, 1.4.
